# Laboratory results from US4861788A, “Antibacterial 1-normon-2-yl-heterocyclic compounds” (Beecham Group plc, priority 1983, dated 1989).
# Where two headings read alike, the source gives them in different places.
# Key:
# [1] = tested on: Staph. aureus 152 (pen. sens); assay: MIC against veterinary bacteria in vitro (Diagnostic Sensitivity Test Agar); details: Staphylococcus aureus, 18 h
# Description: (§2) The activity of the normonyl derivatives of the Examples against various veterinarily important bacteria, was assayed in vitro using two-fold serial dilutions in Diagnostic Sensitivity Test Agar inoculated with 10^4 organisms.
# M. hyopneumoniae Str. 11 = assay: MIC against Mycoplasma in vitro (Friis broth with agarose); assay type: cell-based; details: Mesomycoplasma hyopneumoniae, 144 h; M. hyopneumoniae Str. 11; 6 days at 37° C; read-out: MIC
# M. hyopneumoniae UCD 1 = assay: as above; assay type: cell-based; details: Mesomycoplasma hyopneumoniae, UCD1, 144 h
# M. hyorhinis ATCC 23234 = assay: as above; assay type: cell-based; details: Mesomycoplasma hyorhinis, ATCC23234, 144 h; M. hyorhinis ATCC 23234; 6 days at 37° C; read-out: MIC
# Staph. aureus Oxford = assay: MIC against veterinary bacteria in vitro (Diagnostic Sensitivity Test Agar); details: Staphylococcus aureus, 18 h
# Description: as §2
# M. hyopneumoniae JF 435 = assay: MIC against Mycoplasma in vitro (Friis broth with agarose); assay type: cell-based; details: Mesomycoplasma hyopneumoniae, JF435, 144 h; M. hyopneumoniae JF 435; 6 days at 37° C; read-out: MIC
# E. coli E1 = assay: MIC against veterinary bacteria in vitro (Diagnostic Sensitivity Test Agar); details: Escherichia coli, E1, 18 h
# Description: as §2
# M. hyopneumoniae TAM 6N = assay: MIC against Mycoplasma in vitro (Friis broth with agarose); assay type: cell-based; details: Mesomycoplasma hyopneumoniae, TAM6N, 144 h; M. hyopneumoniae TAM 6N; 6 days at 37° C; read-out: MIC
# M. dispar NCTC 10125 = assay: as above; assay type: cell-based; details: 144 h
# Past. multocida PA2 = assay: MIC against veterinary bacteria in vitro (Diagnostic Sensitivity Test Agar); details: Pasteurella multocida, PA2, 18 h
# Description: as §2
# [2] = tested on: Staph. aureus B4 (pen. resistant); assay: as above; details: Staphylococcus aureus, 18 h
# Description: as §2
# E. coli ESS = assay: MIC against human bacteria in vitro (nutrient agar, chocolated horse blood); assay type: cell-based; details: Escherichia coli; human; E. coli ESS; 18 hours at 37° C; read-out: MIC
# Description: (§1) The activity of the normonyl derivaties of the Examples against various bacteria which are important in diseases of humans, was assayed in vitro using serial dilutions in nurient agar with 5% chocolated horse blood.
# Staph. aureus W2827 = assay: as above; assay type: cell-based; details: Staphylococcus aureus; human; Staph. aureus W2827; 18 hours at 37° C; read-out: MIC
# Description: as §1
# Strep. faecalis I = assay: as above; assay type: cell-based; details: Enterococcus faecalis; human; Strep. faecalis I; 18 hours at 37° C; read-out: MIC
# Description: as §1
# Bacillus subtilis 6633 = assay: as above; assay type: cell-based; details: human; Bacillus subtilis 6633; 18 hours at 37° C; read-out: MIC
# Description: as §1
# Bord. bronchiseptica B09 = assay: MIC against veterinary bacteria in vitro (Diagnostic Sensitivity Test Agar); details: Bordetella bronchiseptica, B09, 18 h
# Description: as §2
# M. pneumoniae ATCC 15492 = assay: MIC against Mycoplasma in vitro (Friis broth with agarose); assay type: cell-based; details: Mycoplasmoides pneumoniae, ATCC15492, 144 h
# [3] = tested on: Strep. suis (group D) SPS11; assay: MIC against veterinary bacteria in vitro (Diagnostic Sensitivity Test Agar); details: Streptococcus suis, 18 h
# Description: as §2
# E. coli NCTC 10418 = assay: as above; details: Escherichia coli, NCTC10418, 18 h
# Description: as §2
# [4] = tested on: M. bovigenitalium ATCC 14173; assay: MIC against Mycoplasma in vitro (Friis broth with agarose); assay type: cell-based; details: 144 h
# Strep. uberis SPU1 = assay: MIC against veterinary bacteria in vitro (Diagnostic Sensitivity Test Agar); details: Streptococcus uberis, SPU1, 18 h
# Description: as §2
# [5] = tested on: M. hyosynoviae ATCC 25591; assay: MIC against Mycoplasma in vitro (Friis broth with agarose); assay type: cell-based; details: 144 h; M. hyosynoviae ATCC 25591; 6 days at 37° C; read-out: MIC
# Strep. agalactiae SPA1 = assay: MIC against veterinary bacteria in vitro (Diagnostic Sensitivity Test Agar); details: Streptococcus agalactiae, SPA1, 18 h
# Description: as §2
# Bord. bronchiseptica B08 = assay: as above; details: Bordetella bronchiseptica, B08, 18 h
# Description: as §2
# Strep. dysgalactiae SPD1 = assay: as above; details: Streptococcus dysgalactiae, SPD1, 18 h
# Description: as §2
# [6] = tested on: M. hyopneumoniae NCTC 101101; assay: MIC against Mycoplasma in vitro (Friis broth with agarose); assay type: cell-based; details: Mesomycoplasma hyopneumoniae, NCTC101101, 144 h; M. hyopneumoniae NCTC 101101; 6 days at 37° C; read-out: MIC
# Past. multocida PA1 = assay: MIC against veterinary bacteria in vitro (Diagnostic Sensitivity Test Agar); details: Pasteurella multocida, PA1, 18 h
# Description: as §2
# M. hyorhinis ATCC 25021 = assay: MIC against Mycoplasma in vitro (Friis broth with agarose); assay type: cell-based; details: Mesomycoplasma hyorhinis, ATCC25021, 144 h; M. hyorhinis ATCC 25021; 6 days at 37° C; read-out: MIC
# M. hyopneumoniae MS 16 = assay: as above; assay type: cell-based; details: Mesomycoplasma hyopneumoniae, MS16, 144 h; M. hyopneumoniae MS 16; 6 days at 37° C; read-out: MIC
# Past. haemolytica PA5 = assay: MIC against veterinary bacteria in vitro (Diagnostic Sensitivity Test Agar); details: Mannheimia haemolytica, PA5, 18 h
# Description: as §2
# [7] = M. pneumoniae ATCC 15492, 6 days at 37° C, read-out: MIC
# [8] = M. bovigenitalium ATCC 14173, 6 days at 37° C, read-out: MIC
# [9] = M. hyopneumoniae UCD 1, 6 days at 37° C, read-out: MIC
SMILES,MIC [1],MIC (M. hyopneumoniae Str. 11),MIC (M. hyorhinis ATCC 23234),MIC (Staph. aureus Oxford),MIC (M. hyopneumoniae JF 435),MIC (E. coli E1),MIC (M. hyopneumoniae TAM 6N),MIC (Past. multocida PA2),MIC [2],MIC (E. coli ESS),MIC (Staph. aureus W2827),MIC (Strep. faecalis I),MIC (Bacillus subtilis 6633),MIC (Bord. bronchiseptica B09),MIC [3],MIC (E. coli NCTC 10418),MIC (Strep. uberis SPU1),MIC [5],MIC (Strep. agalactiae SPA1),MIC (Bord. bronchiseptica B08),also measured
"CC(=Cc1nnc(-c2cccnc2)o1)CC1OCC(CC2OC2C(C)C(C)O)C(O)C1O (stereo not drawn) [Example 5, 2-(1-Normon-2-yl)-5-(3-pyridyl)-1,3,4-oxadiazole A]",10 µg/mL,1 µg/mL,1 µg/mL,20 µg/mL,2.5 µg/mL,> 80 µg/mL,2.5 µg/mL,1.25 µg/mL,10 µg/mL,4 µg/mL,32 µg/mL,> 128 µg/mL,4 µg/mL,20 µg/mL,> 80 µg/mL,> 80 µg/mL,2.5 µg/mL,1 µg/mL,20 µg/mL,> 80 µg/mL,"MIC (M. hyopneumoniae UCD 1): 2.5 µg/mL; MIC (M. dispar NCTC 10125; M. dispar NCTC 10125, 6 days at 37° C, read-out: MIC): 0.5 µg/mL; MIC (M. pneumoniae ATCC 15492; [7]): > 10 µg/mL; MIC [4, 8]: 0.25 µg/mL; MIC (Strep. dysgalactiae SPD1): 10 µg/mL; MIC [6]: 2.5 µg/mL; MIC (Past. multocida PA1): 1.25 µg/mL; MIC (M. hyorhinis ATCC 25021): 1 µg/mL; MIC (M. hyopneumoniae MS 16): 1 µg/mL"
"CC(=Cc1nnc(-c2ccc(S(C)(=O)=O)cc2)o1)CC1OCC(CC2OC2C(C)C(C)O)C(O)C1O (stereo not drawn) [Example 4, 2-p-Methylsulphonylphenyl-5-(1-normon-2-yl)-1,3,4-oxadiazole A]",5 µg/mL,0.25 µg/mL,0.1 µg/mL,10 µg/mL,0.25 µg/mL,> 80 µg/mL,0.5 µg/mL,1.25 µg/mL,5 µg/mL,4 µg/mL,32 µg/mL,> 64 µg/mL,16 µg/mL,10 µg/mL,80 µg/mL,> 80 µg/mL,2.5 µg/mL,1 µg/mL,10 µg/mL,> 80 µg/mL,"MIC (M. hyopneumoniae UCD 1; [9]): 0.25 µg/mL; MIC (M. pneumoniae ATCC 15492; [7]): > 10 µg/mL; MIC [4, 8]: 0.25 µg/mL; MIC (Strep. dysgalactiae SPD1): 10 µg/mL; MIC [6]: 0.5 µg/mL; MIC (Past. multocida PA1): 2.5 µg/mL; MIC (M. hyorhinis ATCC 25021): 0.1 µg/mL; MIC (Past. haemolytica PA5): 20 µg/mL; MIC (M. hyopneumoniae MS 16): 0.1 µg/mL"
"CC(=Cc1nnc(-c2ccncc2)o1)CC1OCC(CC2OC2C(C)C(C)O)C(O)C1O (stereo not drawn) [Example 7, 2-(1-Normon-2-yl)-5-(4-pyridyl)-1,3,4-oxadiazole A]",10 µg/mL,0.5 µg/mL,0.5 µg/mL,> 80 µg/mL,2.5 µg/mL,> 80 µg/mL,2.5 µg/mL,0.625 µg/mL,10 µg/mL,64 µg/mL,32 µg/mL,> 128 µg/mL,2 µg/mL,20 µg/mL,> 80 µg/mL,> 80 µg/mL,2.5 µg/mL,0.5 µg/mL,20 µg/mL,> 80 µg/mL,MIC (M. hyopneumoniae UCD 1; [9]): 1 µg/mL; MIC (M. dispar NCTC 10125): 0.25 µg/mL; MIC (M. pneumoniae ATCC 15492): > 10 µg/mL; MIC [4]: 0.25 µg/mL; MIC (Strep. dysgalactiae SPD1): 10 µg/mL; MIC [6]: 2.5 µg/mL; MIC (Past. multocida PA1): 2.5 µg/mL; MIC (M. hyorhinis ATCC 25021): 0.5 µg/mL; MIC (Past. haemolytica PA5): 20 µg/mL
